Results on 8 compounds are retold here after PubChem BioAssay AID2060882 (Molecular Pharmacology Branch, DTP, NCI, 2025).

The assay has as its system 898857-211-R-J1-PDC complex spheroids, growth % test/control. In words: Anticancer human tumor 898857-211-R-J1-PDC patient-derived melanoma cell line growth inhibition [RAS]. The settings on record: for viability, T/C: stronger effect = lower value. An excerpt:
RAS pathway inhibitors in Combinations in Complex Spheroids
A high-throughput screen of multi-cell type tumor spheroids was designed to identify active combinations of RAS pathway inhibitors and targeted small molecules. Complex spheroids include a stromal component modeled by human endothelial cells (HUVEC) and fibroblasts modeled by human mesenchymal stem cells (MSCs). The concentration ranges selected for each drug and investigational agent were based upon clinically achievable concentrations if the clinical Cmax of the agent was known.
Compounds. The drugs and investigational agents: abemaciclib (NSC768073), cobimetinib (NSC768068), divarasib (GDC6063, NSC841802), docetaxel (NSC628503), GDC-1971 (RLY-1971, NSC841576), gemcitabine (NSC613327), inavolisib (NSC800729), ipatasertib (NSC767898), KB-0742 (NSC834161), MRTX-1133 (NSC836407), osimertinib (NSC779217), RMC-4630 (NSC839698), RMC-6236 (NSC851965), RMC-6291 (NSC852671), Ro-3306 (NSC812927), sapanisertib (NSC764658), SN-38 (NSC673596), staurosporine (NSC755774), SY5609 (NSC837396), and tovorafenib (DAY101, NSC766906), were obtained from the National Cancer Institute (NCI) Developmental Therapeutics Program Chemical Repository. The FDA-approved anticancer drug set is available from the NCI Developmental Therapeutics Program. […] The stock solutions were prepared in dimethyl sulfoxide (DMSO, Sigma-Aldrich, St. Louis, MO, cat. D2650) at 800-fold the tested concentration and stored at -70 degrees C prior to their use. All drugs and investigational agents were tested over a range starting from a high concentration at or near the clinical Cmax and decreasing in half-log increments. If the clinical Cmax for an agent had not been determined, the highest concentration tested was 10 microM.
Cell Culture. All cells were maintained in an incubator at 37 degrees C and 5% CO2 with 95% humidity. The PDC lines were cultured according to standard operating procedures established by the NCI PDMR. All PDCs were thawed and cultured in Matrigel-coated flasks prepared with a working solution of 1X Ham's F-12 nutrient mix, without supplementation (Invitrogen, Waltham, MA, cat. 11765054), 100 U/mL penicillin-streptomycin (Invitrogen, cat. 15140122), and 2.5% Matrigel (Corning Inc., Corning, NY, cat. 354248) for the first three passages. The 362531-283-R-J2-PDC and 782815-120-R-J1-PDC lines were cultured in 6C/Colon 1B media, which includes advanced DMEM/F-12 (Thermo Fisher Scientific, cat. 12634028), 10 mM HEPES (Thermo Fisher Scientific, cat. 15630080), 1X GlutaMAX supplement (Thermo Fisher Scientific, cat. 35050061), 0.1 mg/mL primocin (InvivoGen, San Diego, CA, cat. ant-pm-2), 10% defined fetal bovine serum, heat inactivated (HyClone Laboratories Inc., Logan, UT, cat. SH30070.03HI), 50% L-WRN conditioned media (ATCC, cat. CRL-3276), 1.25 mM N-Acetyl-L-cysteine (Sigma-Aldrich, cat. A9165), 10 mM nicotinamide (Sigma-Aldrich, cat. N0636), 1X B-27 supplement (Thermo Fisher Scientific, cat. 17504044), 1X N-2 supplement (Thermo Fisher Scientific, cat. 17502048), 50 ng/mL human EGF (Thermo Fisher Scientific, cat. PHG0311), and 10 microM Y-27632 dihydrochloride (Tocris Bioscience, cat. 1254). The K12877-001-R-J1-PDC line was cultured in 6I media, which includes all 6C/Colon 1B media plus 10 ng/mL human FGF-10 (PeproTech, cat. 100-26), 1 ng/mL human FGF-2 (PeproTech, cat. 100-18B), 1 µM prostaglandin E2 (Tocris Bioscience, cat. 2296), […] hydrocortisone (Sigma-Aldrich, cat. H4001), and […] bovine insulin (Sigma-Aldrich, cat. I6634). The K86415-001-R-J1-PDC line was cultured in 6D media, which includes all 6C/Colon 1B media components minus the L-WRN conditioned media. The 485176-168-R4-J1-PDC was cultured in PANC media, which includes all 6C/Colon 1B media plus 100 ng/mL human FGF-10 (PeproTech, cat. 100-26), 500 nM SB-431542 (Selleckchem, cat. S1067), and 10 nM gastrin (Tocris Bioscience, cat. 3006). […]

Values joined by “and” are separate entries in the source; they are usually repeats but may differ in a detail not shown here. Identical values can stand only once. Where only a bound is given, the exact number is not on record here.
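Also: spheroids exposed to compound for seven days before readout.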
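For viability, T/C in this document: 100% = DMSO vehicle control wells.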

Turning to `C=CC(=O)N1CCN(c2nc(OCC3CCCN3C)nc3c(F)c(-c4nc(N)cc(C)c4C(F)(F)F)c(Cl)cc23)C(C)C1` (centres undefined), the viability, T/C (compound 0.00316 µM, compound 0.0316 µM) was 121%; the viability, T/C (compound 0.00316 µM, compound 0.1 µM) is 105%; the viability, T/C (compound 0.00316 µM, compound 0.316 µM) was 117%; the viability, T/C (compound 0.00316 µM, compound 1 µM) was 124%; the viability, T/C (compound 0.00316 µM) was 110% [middle of 11 runs]; the viability, T/C (compound 0.01 µM, compound 0.00316 µM) was 98.1%. Moreover, the viability, T/C by setting is: (compound 0.01 µM, compound 0.0316 µM) 108%; (compound 0.01 µM, compound 0.1 µM) 112%; (compound 0.01 µM, compound 0.316 µM) 116%; (compound 0.01 µM, compound 1 µM) 127%; (compound 0.01 µM) 108% [middle of 12 runs]; (compound 0.0316 µM, compound 0.00316 µM) 102%. For the same compound, the viability, T/C is 108% (compound 0.0316 µM, compound 0.01 µM); 103% (compound 0.0316 µM, compound 0.1 µM); 115% (compound 0.0316 µM, compound 0.316 µM); 122% (compound 0.0316 µM, compound 1 µM); 112% [middle of 12 runs] (compound 0.0316 µM); 109% (compound 0.1 µM, compound 0.00316 µM). Moreover, the viability, T/C runs as follows: (compound 0.1 µM, compound 0.01 µM) 103%; (compound 0.1 µM, compound 0.0316 µM) 122%; (compound 0.1 µM, compound 0.316 µM) 118%; (compound 0.1 µM, compound 1 µM) 127%; (compound 0.1 µM) 114% [middle of 12 runs]; (compound 0.316 µM, compound 0.00316 µM) 125%. Moreover, the viability, T/C was 121% (compound 0.316 µM, compound 0.01 µM); 119% (compound 0.316 µM, compound 0.0316 µM); 125% (compound 0.316 µM, compound 0.1 µM); 127% (compound 0.316 µM, compound 1 µM); 115% [middle of 12 runs] (compound 0.316 µM); 115% (compound 1 µM, compound 0.00316 µM). Also, the viability, T/C is 126% (compound 1 µM, compound 0.01 µM); 123% (compound 1 µM, compound 0.0316 µM); 112% (compound 1 µM, compound 0.1 µM); 119% (compound 1 µM, compound 0.316 µM); 116% [middle of 12 runs] (compound 1 µM). Besides, the IC50 (compound alone, run of 09/09/2024) is greater than 1000 nM and the IC50 (curve of compound) is greater than 1000 nM.
As to `C=CC(=O)Nc1cc(Nc2nccc(-c3cn(C)c4ccccc34)n2)c(OC)cc1N(C)CCN(C)C`, the viability, T/C runs as follows: (compound 0.00316 µM) 113% and 103% (2×) and 128%; (compound 0.01 µM) 99.8% [middle of 4 runs]; (compound 0.0316 µM) 114% [middle of 4 runs]; (compound 0.1 µM) 102% [middle of 4 runs]; (compound 0.316 µM) 92.8% [middle of 4 runs]; (compound 1 µM) 54.5% [middle of 4 runs]. Also, the IC50 (curve of compound) was 970 nM and > 1000 nM and 799 nM.
As for `CC(C)n1nc(-c2ccc3oc(N)nc3c2)c2c(N)ncnc21`, the viability, T/C was 112% [middle of 4 runs] (compound 0.000316 µM); 95.8% [middle of 4 runs] (compound 0.001 µM); 96.8% [middle of 4 runs] (compound 0.00316 µM); 73.3% [middle of 4 runs] (compound 0.01 µM); 48.5% [middle of 4 runs] (compound 0.0316 µM); 20.9% [middle of 4 runs] (compound 0.1 µM). The IC50 (curve of compound) was 28.7 nM [middle of 4 runs].
As for `CC1(C)CCC(Nc2ncc(C(F)(F)F)c(-c3c[nH]c4c(P(C)(C)=O)c(C#N)ccc34)n2)CN1` (centres undefined), the viability, T/C reads like this: (compound 0.000949 µM) 92.3% and 96.9% and 98.6%; (compound 0.003 µM) 59.9% and 52.9% and 65.2%; (compound 0.00949 µM) 31.4% and 26.4% and 32.5%; (compound 0.03 µM) 20.2% and 16.2% and 24.3%; (compound 0.0949 µM) 17.3% and 16.8% and 20.4%; (compound 0.3 µM) 18.4% and 16.5% and 20%. Besides, the IC50 (curve of compound) was 4.47 nM and 3.41 nM and 5.16 nM.
With `CCc1c2c(nc3ccc(O)cc13)-c1cc3c(c(=O)n1C2)COC(=O)[C@]3(O)CC`, the viability, T/C by setting is: (compound 0.000949 µM) 96.5% [middle of 4 runs]; (compound 0.003 µM) 65.1% [middle of 4 runs]; (compound 0.00949 µM) 30.4% [middle of 4 runs]; (compound 0.03 µM) 10.2% [middle of 4 runs]; (compound 0.0949 µM) 7.84% [middle of 4 runs]; (compound 0.3 µM) 7.49% [middle of 4 runs]. In addition, the IC50 (curve of compound) is 4.92 nM [middle of 4 runs].
Regarding `CCn1c(-c2cc(N3CCN(C)CC3)cnc2C(C)OC)c2c3cc(ccc31)-c1csc(n1)CC(NC(=O)C1CC1C)C(=O)N1CCCC(N1)C(=O)OCC(C)(C)C2` (centres undefined), the viability, T/C runs as follows: (compound 0.000949 µM) 111% [middle of 8 runs]; (compound 0.003 µM) 109% [middle of 8 runs]; (compound 0.00949 µM) 102% [middle of 8 runs]; (compound 0.03 µM) 105% [middle of 8 runs]; (compound 0.0949 µM) 96.2% [middle of 8 runs]; (compound 0.3 µM) 100% [middle of 8 runs]. The IC50 (compound alone, run of 08/26/2024) is greater than 300 nM.
For the compound `CCn1c(-c2cccnc2C(C)OC)c2c3cc(ccc31)N1CCOC(CC(NC(=O)C(C(C)C)N(C)C(=O)C3(F)CCN(C(=O)C#CC(C)(C)N(C)C)CC3)C(=O)N3CCCC(N3)C(=O)OCC(C)(C)C2)C1` (centres undefined), the viability, T/C (compound 0.000949 µM) is 110% [middle of 6 runs]; the viability, T/C (compound 0.00949 µM) is 112% [middle of 6 runs]; the viability, T/C (compound 0.03 µM) is 103% [middle of 6 runs]; the viability, T/C (compound 0.0949 µM) is 92.8% [middle of 6 runs]; the viability, T/C (compound 0.3 µM) was 81.3% [middle of 6 runs]. Also, the IC50 (compound alone, run of 08/20/2024) was greater than 300 nM.
With `O=C(c1ccc(F)c(F)c1Nc1ccc(I)cc1F)N1CC(O)([C@@H]2CCCCN2)C1`, the viability, T/C runs as follows: (compound 0.00316 µM) 56.5% [middle of 4 runs]; (compound 0.01 µM) 40.4% (2×) and 26.7% and 33.1%; (compound 0.0316 µM) 28.9% [middle of 4 runs]; (compound 0.1 µM) 20.3% [middle of 4 runs]; (compound 0.316 µM) 18.5% [middle of 4 runs]; (compound 1 µM) 13.4% [middle of 4 runs].

Broadly, the viability, T/C is the ratio of treated to control. As usually defined, the IC50 is the midpoint of a concentration-inhibition curve.
